Laboratory results published in patent US20060003993A1, “Benzotriazepnes as gastrin and cholecystokinin receptor ligands” (James Black Foundation Limited, priority 2001, published 2006).

What was measured:
[1] = target: T1, gastrin (CCK2) receptors (Rattus norvegicus, UniProt P30553); assay: immature rat stomach assay, gastrin (CCK2) antagonist activity; type: cell-based; settings: pentagastrin dose-response curves, acid secretion
T1 construct: The stomach was excised and flushed with ca. 1 ml of unbuffered physiological saline solution; from tissue; host or cells: isolated lumen-perfused stomach of immature rats (ca. 21 days old)
T1 sequence (P30553 1-452): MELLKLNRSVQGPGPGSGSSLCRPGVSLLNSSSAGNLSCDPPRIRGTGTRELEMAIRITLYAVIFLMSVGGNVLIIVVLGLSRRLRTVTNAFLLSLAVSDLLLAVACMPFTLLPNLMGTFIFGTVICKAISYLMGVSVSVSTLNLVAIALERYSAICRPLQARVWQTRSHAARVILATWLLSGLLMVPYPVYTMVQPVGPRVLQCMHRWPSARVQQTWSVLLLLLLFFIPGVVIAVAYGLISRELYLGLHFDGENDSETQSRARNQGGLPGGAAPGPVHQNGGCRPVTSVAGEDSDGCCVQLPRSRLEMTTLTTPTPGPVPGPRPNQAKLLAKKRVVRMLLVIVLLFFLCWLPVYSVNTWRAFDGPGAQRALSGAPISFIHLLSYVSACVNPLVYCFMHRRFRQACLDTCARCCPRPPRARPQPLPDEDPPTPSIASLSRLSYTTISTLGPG
Procedure: The compounds of the examples were tested for gastrin (CCK2) antagonist activity in an immature rat stomach assay. The procedure was as follows:
The oesophagus of immature rats (33-50 g, ca. 21 days old) was ligated at the level of the cardiac sphincter and the duodenal sphincter was cannulated. The stomach was excised and flushed with ca. 1 ml of unbuffered physiological saline solution. The fundus was punctured and cannulated. A further 4-5 ml of unbuffered solution was flushed through the stomach to ensure the preparation was not leaking. […] The stomach was continuously perfused at a rate of 1 ml min^−1 with unbuffered solution gassed with 100% O2 with the perfusate passing over an internally referenced pH-electrode fixed 12 cm above the stomach.
After 120 min of stabilisation the drugs were added directly to the serosal solution in the organ bath and after a further 60 min cumulative pentagastrin dose-response curves were started.

[2] = target: T2, human gastrin (CCK2) receptors (Homo sapiens, UniProt P32239); assay: [125I]-BH-CCK-8S competition binding at human CCK2 receptors cloned into NIH3T3 cells; settings: hCCK2 receptor, NIH3T3 clone 7 membranes, [125I]-BH-CCK-8S 200 pM, 150 min at 21° C.
T2 construct: amplified by PCR (polymerase chain reaction) from the start codon to the stop codon; expressed in transfected cells
T2 sequence (P32239 1-447): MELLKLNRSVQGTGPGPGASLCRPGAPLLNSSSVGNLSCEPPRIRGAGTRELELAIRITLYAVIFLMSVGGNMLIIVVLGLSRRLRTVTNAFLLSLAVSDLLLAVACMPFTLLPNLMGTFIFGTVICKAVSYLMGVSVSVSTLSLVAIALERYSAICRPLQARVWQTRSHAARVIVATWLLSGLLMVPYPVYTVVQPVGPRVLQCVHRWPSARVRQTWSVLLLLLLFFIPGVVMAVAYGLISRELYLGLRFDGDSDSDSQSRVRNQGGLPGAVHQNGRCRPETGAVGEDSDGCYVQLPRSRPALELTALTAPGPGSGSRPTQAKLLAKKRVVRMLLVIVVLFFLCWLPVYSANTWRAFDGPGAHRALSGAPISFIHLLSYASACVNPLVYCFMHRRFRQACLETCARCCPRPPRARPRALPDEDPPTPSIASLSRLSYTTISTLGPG
Source text: Step a: Subcloning of IMAGE Clone Encoding the Human CCK2R into a Mammalian Expression Vector
I.M.A.G.E. (Integrated Molecular Analysis of Genomes and their Expression) clone number 3504160 (Lennon et al. Genomics 33, 151-152 (1996)) was purchased from the HGMP (Human Genome Mapping Project, Cambridge). The cDNA encoding the mRNA for the human CCK2R, corresponding to accession number BC000740, was present in vector pOTB7 in host cell DH10B. The cells, initially streaked on to LB-Agar plates containing 20 μg/ml chloramphenicol, were then grown in LB containing 20 μg/ml chloramphenicol with shaking at 37° C. according to standard techniques (Current Protocols in Molecular Biology, Wiley). DNA was prepared using the QIAGEN® EndoFree™ plasmid Maxi kit (Qiagen Ltd.) according to the manufacturer's protocol. The DNA was then amplified by PCR (polymerase chain reaction) from the start codon to the stop codon using primers containing restriction sites, Eco R1 and Xba I respectively, to facilitate uni-directional cloning. […]
The PCR product was purified using the QIAGEN® MinElute™ PCR purification kit, according to the manufacturer's instructions. […] The digested DNA bands of the correct size, analysed by ethidium bromide stained agarose/TBE gels, were excised and purified using QIAGEN@ MinElute™ gel extraction kit, according to the manufacturer's instructions. […]

SMILES | pKB rat stomach [1] | pKi ± s.e.mean [2]
CNc1cc(NC(=O)CN2N=C(C3CCCCC3)c3ccccc3N(CC(O)C(C)(C)C)C2=O)cc(C(=O)OC)c1 (stereo not drawn) [Example 78] | 6.49 ± 0.33 | –
Cc1cccc2c1C(C1CCCCC1)=NN(CC(=O)Nc1cccc(C(=O)O)c1)C(=O)N2CC(=O)C(C)(C)C [Example 114] | 7.45 ± 0.43 | –
Cc1cccc(NC(=O)N[C@@H]2N=C(c3ccccc3)c3ccccc3N(CC(=O)c3ccccc3C)C2=O)c1 [YM022] | – | 10.19 ± 0.03
